Experimental data published in ChEMBL document CHEMBL2021855, “Hepatitis C RNA-dependent RNA polymerase inhibitors: a review of structure-activity and resistance relationships; different scaffolds and mutations” (Bioorg Med Chem, 2012).
Each block holds one molecule with its values, some of them ahead of it.

Assays:
[1] = Inhibition of Hepatitis C virus NS5B RNA-dependent RNA polymerase; parameters: species or system Hepacivirus hominis
Hepatitis C virus [2] = assay: Antiviral activity against Hepatitis C virus assessed as inhibition of viral replication by replicon assay; type: functional, organism-based, Hepacivirus hominis
[3] = Competitive inhibition of Hepatitis C virus NS5B RNA-dependent RNA polymerase; parameters: species or system Hepacivirus hominis
Hepatitis C virus [4] = assay: Inhibition of Hepatitis C virus genotype 1b NS5B RNA-dependent RNA polymerase P495L mutant; parameters: species or system Hepatitis C virus subtype 1b
Hepatitis C virus [5] = assay: Inhibition of Hepatitis C virus genotype 1b NS5B RNA-dependent RNA polymerase M423 mutant; parameters: species or system Hepatitis C virus subtype 1b
Hepatitis C virus [6] = assay: Inhibition of Hepatitis C virus genotype 1b NS5B RNA-dependent RNA polymerase; parameters: species or system Hepatitis C virus subtype 1b
Hepatitis C virus [7] = assay: Antiviral activity against Hepatitis C virus genotype 1a assessed as inhibition of viral replication by replicon assay; type: functional, organism-based, Hepacivirus hominis; settings: subtype 1a
Hepatitis C virus [8] = assay: Antiviral activity against Hepatitis C virus genotype 1b assessed as inhibition of viral replication by replicon assay; type: functional, organism-based, Hepacivirus hominis
[9] = Cytotoxicity against human HuH7 cells; type: cell-based, Huh-7
Hepatitis C virus [10] = assay: Antiviral activity against Hepatitis C virus genotype 1b infected in human HuH7 cells assessed as inhibition of viral replication by replicon assay; type: functional, organism-based, Hepacivirus hominis; settings: Huh-7
Hepatitis C virus [11] = assay: Antiviral activity against Hepatitis C virus genotype 1a infected in human HuH7 cells assessed as inhibition of viral replication by replicon assay; type: functional, organism-based, Hepacivirus hominis; settings: subtype 1a, Huh-7
[12] = Half life in human liver microsomes
[13] = Half life in monkey liver microsomes; settings: rhesus monkey
Hepatitis C virus [14] = assay: Inhibition of Hepatitis C virus con1 NS5B RNA-dependent RNA polymerase C316Y mutant; parameters: species or system Hepacivirus hominis
[15] = Inhibition of Hepatitis C virus genotype 1 NS5B RNA-dependent RNA polymerase
Hepatitis C virus [16] = assay: Inhibition of Hepatitis C virus con1 NS5B RNA-dependent RNA polymerase; parameters: species or system Hepacivirus hominis

IC50 [1]: 0.28 µM
SMILES: O=C(O)/C=C/c1ccc(NC(=O)CNC(=O)c2ccc3c(c2)nc(-c2ccoc2)n3C2CCCCC2)cc1

EC50 (Hepatitis C virus [2]): 0.072 µM
IC50 [1]: 0.095 µM
SMILES: O=C(O)/C=C/c1ccc(NC(=O)C2(NC(=O)c3ccc4c(c3)nc(-c3ccoc3)n4C3CCCCC3)CCCC2)cc1

IC50 [1]: 0.35 µM
SMILES: CO[C@@H]1[C@H](O)[C@@H](CO)O[C@H]1n1ccc2c(O)nc(N)nc21

SMILES: [N-]=[N+]=N[C@]1(CO)O[C@@H](n2ccc(N)nc2=O)[C@H](O)[C@@H]1O [4'-AZIDOCYTIDINE]
Ki [3]: 0.04 µM

SMILES: O=C(O)c1ccc2c(c1)nc(-c1ccc(OCc3cc(N4CCCC4=O)ccc3-c3ccc(Cl)cc3)cc1F)n2C1CCCCC1
IC50 (Hepatitis C virus [4]): 1.5 µM

SMILES: C[C@H]1CC[C@H](C(=O)N(c2cc(-c3ccccc3)sc2C(=O)O)[C@H]2CC[C@H](O)CC2)CC1
IC50 (Hepatitis C virus [5]): 0.45 µM
IC50 (Hepatitis C virus [6]): 0.017 µM

EC50 [1]: 3.5 µM
SMILES: C[C@@]1(O)[C@H](O)[C@@H](CO)O[C@H]1n1cnc2c(=O)[nH]c(N)nc21 [2'-B-METHYL-GUANOSINE]

IC50 [1]: 0.08 µM
SMILES: Nc1ncnc2c1ccn2[C@@H]1O[C@H](CO)C[C@H]1O

IC50 [1]: 0.08 µM
SMILES: Nc1nc2c(ncn2[C@@H]2O[C@H](CO)C[C@H]2O)c(=O)[nH]1

IC50 [1]: 3.8 µM
SMILES: CO[C@@H]1[C@H](O)[C@@H](CO)O[C@H]1n1cnc2c(O)nc(N)nc21

IC50 [1]: 0.08 µM
SMILES: Nc1nc(O)c2ccn([C@@H]3O[C@H](CO)C[C@H]3O)c2n1

EC50 (Hepatitis C virus [7]): 0.29 µM
EC50 (Hepatitis C virus [8]): 0.002 µM
SMILES: COC[C@H]1C[C@@](Cn2cccn2)(C(=O)O)N(C(=O)c2ccc(C(C)(C)C)c(OC)c2)[C@H]1c1nccs1 [GSK-625433]

IC50 [1]: 0.08 µM
SMILES: Nc1ccn([C@@H]2O[C@H](CO)C[C@H]2O)c(=O)n1

EC50 (Hepatitis C virus [10]): 0.003 µM
EC50 (Hepatitis C virus [11]): 0.052 µM
half-life [12]: > 1 h
half-life [13]: > 1 h
SMILES: CS(=O)(=O)Nc1ccc2c(c1)S(=O)(=O)N=C(C1=C(O)[C@@H]3[C@H]4CC[C@H](C4)[C@@H]3N(Cc3ccc(F)cc3)C1=O)N2 [SETROBUVIR]
CC50 [9]: 100 µM

EC50 (Hepatitis C virus [2]): 0.07 µM
SMILES: C[C@@]1(O)[C@H](O)[C@@H](CO)O[C@H]1n1cc(F)c2c(N)ncnc21

IC50 [1]: 1.2 µM
SMILES: CO[C@@H]1[C@H](O)[C@@H](CO)O[C@H]1n1ccc(N)nc1=O

SMILES: CNC(=O)c1c(-c2ccc(F)cc2)oc2cc(N(CCO)S(C)(=O)=O)c(C3CC3)cc12 [NESBUVIR]
IC50 (Hepatitis C virus [14]): 2.16 µM
EC50 (Hepatitis C virus [7]): 0.005 µM
IC50 [15]: 0.01 µM
EC50 (Hepatitis C virus [8]): 0.009 µM
IC50 (Hepatitis C virus [16]): 0.0008 µM
